The subject of test [1] is Blastococcus sp. S21A-2. It counts as cell-based. As to conditions: Blastococcus sp. S21A-2, isolated from acne lesions. On the procedure: (§1) MIC of besifloxacin and other antibiotics molecules were determined by micro broth dilution method as per the Clinical and Laboratory Standards Institute (CLSI) guideline. MIC assay is the determinant of the inherent anti-microbial potency of a particular molecule. For preparing inoculum, bacterial strains were cultured in Brain Heart Infusion Agar (BHIA) at 37° C. for 24 hours. […] For bacterial inoculum, bacterial culture turbidity was adjusted to 0.1 OD at 600 nm in UV-Visual spectrophotometer (approximately 1.5×10^8 cells/ml) and further diluted (100 times with sterile BHI broth). Diluted bacterial suspension (100 μl) was added to each well except sterility control wells (column 12 of 96 well plate). Column 11 of 96 well plate was used as growth control and vehicle control. The plates were incubated at 37° C. for 24 h. The MIC of the test compounds were determined by observing the lowest concentration of test compound that prevented the visual bacterial growth.
(§2) Different skin resident bacteria were isolated from acne lesions of moderate to severe acne patients.

Test [2] relates to P. acnes V3-1. Kind of test: MIC against bacteria isolated from acne lesions, Table 2. It counts as cell-based, Propionibacterium acnes. As to conditions: Cutibacterium acnes, V31; P. acnes V3-1, isolated from acne lesions; read-out: Minimum Inhibitory Concentration. The procedure: as §1, §2
The subject of test [3] is S. epidermidis S1-1. The test is described as above. The conditions noted are these: Staphylococcus epidermidis, S11; S. epidermidis S1-1, isolated from acne lesions; read-out: Minimum Inhibitory Concentration. It counts as cell-based. On the procedure:
as §1, §2

Test [4] has as its system Kocuria sp. S18-1. Described as above. It counts as cell-based. The conditions noted are these: SP.S181; Kocuria sp. S18-1, isolated from acne lesions; read-out: Minimum Inhibitory Concentration. The procedure: as §1, §2
For test [5], the system named is K. pneumoniae S6-1. The description is as above. As to conditions: Klebsiella pneumoniae, S61; K. pneumoniae S6-1, isolated from acne lesions; read-out: Minimum Inhibitory Concentration. The format is cell-based. The procedure: as §1, §2
For test [6], the system named is Staphylococcus haemolyticus M1-1. Described as above. It counts as cell-based. As to conditions: M11; Staphylococcus haemolyticus M1-1, isolated from acne lesions; read-out: Minimum Inhibitory Concentration. On the procedure:
as §1, §2

Test [7] has as its system Bacillus megaterium M1-2. The description is as above. It counts as cell-based. The conditions noted are these: Priestia megaterium, M12., read-out: Minimum Inhibitory Concentration. The procedure:
as §1, §2

Test [8] has as its system Dermatobacter hominis S11-2. The description is as above. As to conditions: S112; Dermatobacter hominis S11-2, isolated from acne lesions; read-out: Minimum Inhibitory Concentration. The format is cell-based. The procedure: as §1, §2
Test [9] concerns P. avidum S3-1. Described as above. It counts as cell-based. As to conditions: Cutibacterium avidum, S31; P. avidum S3-1, isolated from acne lesions; read-out: Minimum Inhibitory Concentration. On the procedure:
as §1, §2

The test system of test [10] is Enterobacter aerogenes M2-1. The test is described as above. As to conditions: Klebsiella aerogenes, M21; Enterobacter aerogenes M2-1, isolated from acne lesions; read-out: Minimum Inhibitory Concentration. It counts as cell-based. The procedure: as §1, §2
Test [11] has as its system Microbacterium sp. S20-2. The description is as above. As to conditions: Microbacterium sp. S20-2, isolated from acne lesions. The format is cell-based. On the procedure:
as §1, §2

Test [12] deals with Klebsiella sp. 498. Kind of test: MIC, micro broth dilution in Muller Hinton broth (CLSI), Table 1B. The format is cell-based. The conditions noted are these: read-out: Minimum Inhibitory Concentration. On the procedure:
(§3) Besifloxacin HCL was tested against ampicillin and cefotaxime (3rd generation cephalosporin) susceptible and resistant gram-negative bacterial strains involved in GNF (gram negative folliculitis) by broth dilution method as per the Clinical & Laboratory Standards Institutes (CLSI) guidelines. MIC assay was performed in 96 well plates by micro broth dilution method, in 96 well plates, all the wells were added with 100 μl of sterilized Muller Hinton broth No: 2 cation broth (HiMedia, India). The initial stock of test compounds (1 mg/ml) were prepared in dimethyl sulfoxide (DMSO) and further dilutions were made in culture broth to get the desirable concentration. Then 100 μl of broth containing test compounds were initially added to the first column's wells and then serial dilution was performed up to well of 10th column. Wells of 11th and 12th column served as a positive and negative control respectively. Finally, 100 μl of inoculum (0.5 McFarland equal bacterial suspension was 100 times diluted in culture broth) was added to all the wells. Plates were incubated at 37° C. for 18-24 hrs. After incubation, MIC of each test compound was determined by observing the lowest concentration of test compound that has no visual growth compared to growth control. Minimum inhibitory concentration of besifloxacin, ampicillin and cefotaxime against gram negative bacterial strains were shown in Table 1.
On the technique in general: Dilution methods test growth across graded concentrations, often in twofold steps.

Test [13] has as its system Acinetobacter sp. 488. The description is as above. It counts as cell-based. As to conditions: read-out: Minimum Inhibitory Concentration. On the procedure: as §3
Test [14] has as its system Pseudomonas sp. 556. Described as above. The format is cell-based. The conditions noted are these: read-out: Minimum Inhibitory Concentration. The procedure:
as §3

Test [15] deals with Enterobacter sp. 523. The description is as above. The format is cell-based. As to conditions: read-out: Minimum Inhibitory Concentration. On the procedure: as §3
Test [16] deals with Escherichia coli 591. The description is as above. It counts as cell-based. The conditions noted are these: read-out: Minimum Inhibitory Concentration. The procedure:
as §3

For test [17], the system named is Klebsiella sp. 512. Described as above. It counts as cell-based. The conditions noted are these: read-out: Minimum Inhibitory Concentration. On the procedure:
as §3

Test [18] has as its system Enterobacter sp. 2. The description is as above. The format is cell-based. The conditions noted are these: read-out: Minimum Inhibitory Concentration. The procedure:
as §3

The subject of test [19] is Escherichia coli 592. Described as above. It counts as cell-based. The conditions noted are these: read-out: Minimum Inhibitory Concentration. On the procedure:
as §3

The test system of test [20] is Pseudomonas sp. 537. The test is described as above. The conditions noted are these: read-out: Minimum Inhibitory Concentration. It counts as cell-based. The procedure:
as §3

In test [21] the test system is Enterobacter sp. 1. The test is described as above. The conditions noted are these: read-out: Minimum Inhibitory Concentration. The format is cell-based. The procedure: as §3
The test system of test [22] is Enterobacter sp. 532. Described as above. The format is cell-based. As to conditions: read-out: Minimum Inhibitory Concentration. The procedure: as §3

Each structure is given as a SMILES string. In brackets after ≈: the same amount, converted by molar mass.

Consider `CC[C@H]1OC(=O)[C@H](C)[C@@H](O[C@H]2C[C@@](C)(OC)[C@@H](O)[C@H](C)O2)[C@H](C)[C@@H](O[C@@H]2O[C@H](C)C[C@H](N(C)C)[C@H]2O)[C@](C)(O)C[C@@H](C)C(=O)[C@H](C)[C@@H](O)[C@]1(C)O` [Erythromycin], for which the “Minimum Inhibitory Concentration” value in [1] is less than 0.01 µg/mL; in test [11], 0.25 µg/mL. Also, the MIC in test [2] was greater than 150 µg/mL; in test [3] it was greater than 4 µg/mL; in test [4], greater than 4 µg/mL; in [5] it was greater than 4 µg/mL; in test [6], 0.25 µg/mL (≈ 0.341 µM); in [7], 0.25 µg/mL (≈ 0.341 µM). Moreover, the MIC in test [8] was greater than 4 µg/mL; in [9], 0.06 µg/mL (≈ 0.0818 µM); in [10], greater than 4 µg/mL.
`CO/N=C(\C(=O)N[C@@H]1C(=O)N2C(C(=O)O)=C(COC(C)=O)CS[C@H]12)c1csc(N)n1` [Cefotaxime]: the MIC in test [12] is 64 to 128 µg/mL (≈ 141 to 281 µM); in test [13], greater than 128 µg/mL; in [14] it was 4 µg/mL (≈ 8.78 µM); in [15], 128 µg/mL (≈ 281 µM); in test [16], less than 0.25 µg/mL; in test [17] it was less than 0.25 µg/mL. Further, the MIC in test [18] amounted to 0.5 µg/mL (≈ 1.1 µM); in test [19], 128 µg/mL (≈ 281 µM); in test [20] it was 16 µg/mL (≈ 35.1 µM); in test [21] it was 128 µg/mL (≈ 281 µM); in [22], 64 µg/mL (≈ 141 µM).
Regarding `CN(C)[C@@H]1C(O)=C(C(N)=O)C(=O)[C@@]2(O)C(O)=C3C(=O)c4c(O)cccc4[C@@](C)(O)[C@H]3C[C@@H]12` [Tetracycline], the “Minimum Inhibitory Concentration” value was found to be 0.5 µg/mL in test [1] and 2 µg/mL in [11]. In addition, the MIC in test [2] is 0.3 µg/mL (≈ 0.675 µM); in [3] it was greater than 4 µg/mL; in [4], 1 µg/mL (≈ 2.25 µM); in [5] it was greater than 4 µg/mL; in test [6], 0.25 µg/mL (≈ 0.563 µM); in test [7], 0.06 µg/mL (≈ 0.135 µM). Moreover, the MIC is greater than 4 µg/mL in test [8], 1 µg/mL (≈ 2.25 µM) in test [9] and 2 µg/mL (≈ 4.5 µM) in test [10].
With `CC1(C)S[C@@H]2[C@H](NC(=O)[C@H](N)c3ccccc3)C(=O)N2[C@H]1C(=O)O` [Ampicillin], the MIC in test [12] is greater than 128 µg/mL; in test [13] it was greater than 128 µg/mL; in [14], greater than 128 µg/mL; in [15], greater than 128 µg/mL; in test [16], 4 µg/mL (≈ 11.4 µM); in test [17] it was 32 µg/mL (≈ 91.6 µM). Besides, the MIC in [18] was 2 µg/mL (≈ 5.72 µM); in test [19] it was greater than 128 µg/mL; in [20] it was greater than 128 µg/mL; in [21], greater than 128 µg/mL; in test [22] it was greater than 128 µg/mL.

Source of the values: US20210393520A1, “TREATMENT OF GRAM-NEGATIVE FOLLICULITIS OR AN INFLAMMATION THEREOF WITH BESIFLOXACIN” (VYOME THERAPEUTICS LIMITED, priority 2018, published 2021).
